Source: BindingDB's records for PubMed 3033464 (Burroughs Wellcome, 1987)
Several values for one entry are separate records, joined by “and”; a condition that tells them apart may be missing. Equal values may be shown once. Where a SMILES comes first, the peptide text is derived from it.

Molecular target: Mu-type opioid receptor (Rattus norvegicus, UniProt P33535)
Sequence (P33535 whole entry): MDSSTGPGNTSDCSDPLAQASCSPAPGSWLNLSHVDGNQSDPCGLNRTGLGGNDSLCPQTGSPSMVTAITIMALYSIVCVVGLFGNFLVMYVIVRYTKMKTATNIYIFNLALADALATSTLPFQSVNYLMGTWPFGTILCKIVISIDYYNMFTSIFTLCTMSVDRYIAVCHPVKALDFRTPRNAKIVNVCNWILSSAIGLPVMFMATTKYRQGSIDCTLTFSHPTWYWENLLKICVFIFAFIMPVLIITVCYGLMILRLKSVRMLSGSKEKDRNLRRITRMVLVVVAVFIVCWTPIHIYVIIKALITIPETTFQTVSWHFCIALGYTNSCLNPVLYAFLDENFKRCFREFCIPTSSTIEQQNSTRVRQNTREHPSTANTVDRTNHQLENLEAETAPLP

| Structure (SMILES) | Ki |
| --- | --- |
| CC(C)[C@H](NC(=O)[C@H](Cc1ccccc1)NC(=O)[C@@H]1CCCN1C(=O)[C@@H](N)Cc1ccc(O)cc1)C(N)=O (H-YPFV-NH2) | 37 nM and 16.1 nM |
| NC(=O)[C@@H]1CCCN1C(=O)[C@H](Cc1ccccc1)NC(=O)[C@@H]1CCCN1C(=O)[C@@H](N)Cc1ccc(O)cc1 [CAS_79805-24-6] (H-YPFP-NH2) | 1160 nM |
| NC(=O)[C@@H]1CCCN1C(=O)[C@@H](Cc1ccccc1)NC(=O)[C@@H]1CCCN1C(=O)[C@@H](N)Cc1ccc(O)cc1 [Morphiceptin] (HELM PEPTIDE1{Y.P.[dF].P.[am]}$$$$V2.0) | 63 nM and 34.9 nM |
